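Method: 48-hour compound exposure of cells in 96-well plates, five concentrations, linear interpolation of endpoints. At the GI50, growth is halved.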 The source made the active and inactive calls. Cut-off read from the data, not from the text of the source: active = GI50 up to about 1.1 µM and inactive = higher.
Experiments:
Experiment in all cases: inhibition of tumour cell growth, NCI panel, 48 h
A549 = test system: A549
ACHN = test system: ACHN
BT-549 = test system: BT-549
DU-145 = test system: DU-145
HCT-116 = test system: HCT-116
HCT-15 = test system: HCT-15
HL-60 = test system: HL-60
HOP-62 = test system: HOP-62
K562 = test system: K562
KM12 = test system: KM12
LOX IMVI = test system: LOX IMVI
MOLT-4 = test system: MOLT-4
NCI-H23 = test system: NCI-H23
NCI-H522 = test system: NCI-H522
OVCAR-3 = test system: OVCAR-3
RXF 393 = test system: RXF 393
SF-295 = test system: SF-295
SF-539 = test system: SF-539
SK-MEL-2 = test system: SK-MEL-2
SN12C = test system: SN12C

NC(Cc1cc(Br)c(O)c(Br)c1)C(=O)O (stereo not given)
GI50 (A549): > 100 µM (inactive)
GI50 (ACHN): > 100 µM (inactive)
GI50 (BT-549): > 100 µM (inactive)
GI50 (DU-145): > 100 µM (inactive)
GI50 (HCT-116): > 100 µM (inactive)
GI50 (HCT-15): > 100 µM
GI50 (HL-60): > 100 µM (inactive)
GI50 (HOP-62): > 100 µM (inactive)
GI50 (K562): > 100 µM (inactive)
GI50 (KM12): > 100 µM (inactive)
GI50 (LOX IMVI): > 100 µM (inactive)
GI50 (MOLT-4): > 100 µM (inactive)
GI50 (NCI-H23): > 100 µM (inactive)
GI50 (NCI-H522): > 100 µM (inactive)
GI50 (OVCAR-3): > 100 µM (inactive)
GI50 (RXF 393): > 100 µM (inactive)
GI50 (SF-295): > 100 µM (inactive)
GI50 (SF-539): > 100 µM (inactive)
GI50 (SK-MEL-2): > 100 µM (inactive)
GI50 (SN12C): > 100 µM (inactive)

Cn1c(=S)c2nc(SCCN3CCCC3)[nH]c2n(C)c1=O
GI50 (A549): > 100 µM (inactive)
GI50 (ACHN): > 100 µM (inactive)
GI50 (BT-549): > 100 µM (inactive)
GI50 (DU-145): > 100 µM (inactive)
GI50 (HCT-116): > 100 µM (inactive)
GI50 (HCT-15): > 100 µM
GI50 (HL-60): > 100 µM (inactive)
GI50 (HOP-62): > 100 µM (inactive)
GI50 (K562): > 100 µM (inactive)
GI50 (KM12): > 100 µM (inactive)
GI50 (LOX IMVI): > 100 µM (inactive)
GI50 (MOLT-4): > 100 µM (inactive)
GI50 (NCI-H23): > 100 µM (inactive)
GI50 (NCI-H522): > 100 µM (inactive)
GI50 (OVCAR-3): > 100 µM (inactive)
GI50 (RXF 393): > 100 µM (inactive)
GI50 (SF-295): > 100 µM (inactive)
GI50 (SF-539): > 100 µM (inactive)
GI50 (SK-MEL-2): > 100 µM (inactive)
GI50 (SN12C): > 100 µM (inactive)

O=c1[nH]c2cc([N+](=O)[O-])c(Nc3c4ccccc4nc4ccccc34)c([N+](=O)[O-])c2[nH]1
GI50 (A549): 2.69 µM (inactive)
GI50 (ACHN): 1.98 µM (inactive)
GI50 (BT-549): 6.53 µM (inactive)
GI50 (DU-145): 2.29 µM (inactive)
GI50 (HCT-116): 0.82 µM (active)
GI50 (HCT-15): 2.58 µM
GI50 (HL-60): 3.1 µM (inactive)
GI50 (HOP-62): 2.67 µM (inactive)
GI50 (K562): 2.42 µM (inactive)
GI50 (KM12): 2.26 µM (inactive)
GI50 (LOX IMVI): 2.37 µM (inactive)
GI50 (MOLT-4): 0.938 µM (active)
GI50 (NCI-H23): 3.49 µM (inactive)
GI50 (NCI-H522): 1.46 µM (inactive)
GI50 (OVCAR-3): 2.58 µM (inactive)
GI50 (RXF 393): 2.42 µM (inactive)
GI50 (SF-295): 2.65 µM (inactive)
GI50 (SF-539): 3.28 µM (inactive)
GI50 (SK-MEL-2): 2.72 µM (inactive)
GI50 (SN12C): 2.17 µM (inactive)

CCCNC(=S)N/C=C1\C(=O)Nc2ccccc2C1=O
GI50 (A549): > 100 µM (inactive)
GI50 (ACHN): > 100 µM (inactive)
GI50 (BT-549): > 100 µM (inactive)
GI50 (DU-145): > 100 µM (inactive)
GI50 (HCT-116): > 100 µM (inactive)
GI50 (HCT-15): > 100 µM
GI50 (HL-60): > 100 µM (inactive)
GI50 (HOP-62): > 100 µM (inactive)
GI50 (K562): > 100 µM (inactive)
GI50 (KM12): > 100 µM (inactive)
GI50 (LOX IMVI): > 100 µM (inactive)
GI50 (MOLT-4): > 100 µM (inactive)
GI50 (NCI-H23): > 100 µM (inactive)
GI50 (NCI-H522): > 100 µM (inactive)
GI50 (OVCAR-3): > 100 µM (inactive)
GI50 (RXF 393): > 100 µM (inactive)
GI50 (SF-295): > 100 µM (inactive)
GI50 (SF-539): > 100 µM (inactive)
GI50 (SK-MEL-2): > 100 µM (inactive)
GI50 (SN12C): > 100 µM (inactive)

CC(=N\c1ccncc1)/C(C)=N/c1ccncc1
GI50 (A549): > 100 µM (inactive)
GI50 (ACHN): 14.5 µM (inactive)
GI50 (BT-549): 23.3 µM (inactive)
GI50 (DU-145): 53.6 µM (inactive)
GI50 (HCT-116): 29.8 µM (inactive)
GI50 (HCT-15): 14.4 µM
GI50 (HL-60): 26.7 µM (inactive)
GI50 (HOP-62): 18.5 µM (inactive)
GI50 (K562): 31 µM (inactive)
GI50 (KM12): 38.3 µM (inactive)
GI50 (LOX IMVI): 19.5 µM (inactive)
GI50 (MOLT-4): 24.4 µM (inactive)
GI50 (NCI-H23): 16.5 µM (inactive)
GI50 (NCI-H522): 16.3 µM (inactive)
GI50 (OVCAR-3): 15.4 µM (inactive)
GI50 (RXF 393): 27.4 µM (inactive)
GI50 (SF-295): 73.5 µM (inactive)
GI50 (SF-539): 18.7 µM (inactive)
GI50 (SK-MEL-2): 20.7 µM (inactive)
GI50 (SN12C): 16.2 µM (inactive)

COc1cc(C)cc2c1C(=O)C(Br)=CC2=O
GI50 (A549): 21.2 µM (inactive)
GI50 (ACHN): 2.52 µM (inactive)
GI50 (BT-549): 11.1 µM (inactive)
GI50 (DU-145): 18.3 µM (inactive)
GI50 (HCT-116): 6.7 µM (inactive)
GI50 (HCT-15): 17.4 µM
GI50 (HL-60): 1.53 µM (inactive)
GI50 (HOP-62): 17.8 µM (inactive)
GI50 (K562): 1.93 µM (inactive)
GI50 (KM12): 15 µM (inactive)
GI50 (LOX IMVI): 8.59 µM (inactive)
GI50 (MOLT-4): 2.39 µM (inactive)
GI50 (NCI-H23): 15.5 µM (inactive)
GI50 (NCI-H522): 2.03 µM (inactive)
GI50 (OVCAR-3): 4.82 µM (inactive)
GI50 (RXF 393): 3.31 µM (inactive)
GI50 (SF-295): 16.2 µM (inactive)
GI50 (SF-539): 15.2 µM (inactive)
GI50 (SK-MEL-2): 14.4 µM (inactive)
GI50 (SN12C): 15.7 µM (inactive)

O=[N+]([O-])c1cccc2nc3ccccc3c(NCCCCCNc3c4ccccc4nc4cccc([N+](=O)[O-])c34)c12
GI50 (A549): 0.0366 µM (active)
GI50 (ACHN): 0.0162 µM (active)
GI50 (BT-549): 0.159 µM (active)
GI50 (DU-145): 0.0211 µM (active)
GI50 (HCT-116): 0.0117 µM (active)
GI50 (HCT-15): 0.0171 µM
GI50 (HL-60): 0.00745 µM (active)
GI50 (HOP-62): 0.0579 µM (active)
GI50 (K562): 0.00466 µM (active)
GI50 (KM12): 0.0461 µM (active)
GI50 (LOX IMVI): 0.168 µM (active)
GI50 (MOLT-4): 0.0203 µM (active)
GI50 (NCI-H23): 0.0412 µM (active)
GI50 (NCI-H522): 0.0859 µM (active)
GI50 (OVCAR-3): 0.075 µM (active)
GI50 (RXF 393): 0.0302 µM (active)
GI50 (SF-295): 0.137 µM (active)
GI50 (SF-539): 0.0304 µM (active)
GI50 (SK-MEL-2): 0.159 µM (active)
GI50 (SN12C): 0.0151 µM (active)
